“Also recorded” adds a separate entry of the source.
Legend:
BALB/c mice [1] = assay: Aspergillus fumigatus allergen-induced airway inflammation model; format: in vivo, mouse; details: intranasal 200 ug/50 ul, 30 min before each immunization from the second week
BALB/c mice [2] = assay: OVA-induced food allergy (diarrhea) model; format: in vivo, mouse
Protocol: BALB/c mice were intraperitoneally sensitised with OVA (50 μg/mouse) plus alum on days 0 and 14. From day 28, mice were intragastrically challenged with OVA (50 mg) three times a week (Brandt, E. B. et al. J. Clin. Invest. 112:1666-1677 (2003)). Before each challenge, mice were starved for 3 h, then pretreated intragastrically with GST or GST-N19 (100 μg), and rested for 30 min. The development of diarrhoea was visually monitored for 90 min after OVA challenge.
To evaluate the role of HRF in food allergy, an OVA-induced food allergy model developed by Brandt et al. (Brandt et al., J. Clin. Invest. 112:1666 (2003)) was employed. BALB/c mice that were 6-8-week-old were intraperitoneal (i.p.) immunized twice on days 0 and 14 with 50 μg of OVA in the presence of alum. From day 28, mice were intragastrically challenged with OVA (50 mg) three times a week. Before each challenge, mice were starved for 3 hours, then pretreated with GST or GST-N19 (100 μg/mouse) intragastrically, and rested for 30 minutes. Control mice were sensitized and challenged, but not pretreated. The development of diarrhea was monitored for ninety minutes after OVA challenge. […] Sections of jejunum and ileum from mice treated as in FIG. 14 were stained with chloroacetate esterase. […] There was a good correlation shown between the number of mucosal mast cells and the number of diarrhea occurrence during 10 OVA challenges (FIG. 15D). Increased serum IgE and IgG1, but not IgG2a, levels (FIG. 16) and increased expression of mRNAs encoding Th2 cytokines (IL-4, IL-5, IL-13) and proinflammatory cytokines (IL-6, IL-1β) in the intestines were observed (data not shown). In this Th2-skewed model, the amount of HRF in plasma from diarrhea-induced mice, as measured by immunoblotting, was increased by about 2 fold compared to PBS control mice (FIG. 16E). […] However, HRF-reactive IgE was not detected under the study conditions.

In the case of “GST-N19: GST fusion protein encoding the first 19 residues of mHRF; inhibitor of HRF/Ig interactions”, the Airway inflammation (BALB/c mice [1]) is reported as “efficacy of GST-N19 was confirmed; also recorded: inhibits”, the Development of diarrhea (BALB/c mice [2]; 100 μg/mouse intragastrically before each OVA challenge, vs GST-pretreated or PBS-treated control mice) is reported as “prevented in a much greater percentage of mice; also recorded: prevents” and the “Increase in mucosal mast cells” value (BALB/c mice [2]; jejunum and ileum sections) is reported as “inhibited”. The “Increase in serosal mast cells” value (BALB/c mice [2]; jejunum and ileum sections) was “inhibited”, the “Mastocytosis in the small intestine” value (BALB/c mice [2]; mouse, in vivo) was “inhibits” and the “Plasma level of HRF-reactive IgG” value (BALB/c mice [2]; mouse, in vivo) was “not affected”. The “Plasma level of total IgE” value (BALB/c mice [2]; mouse, in vivo) was “not affected”, the “Plasma level of total IgG1” value (BALB/c mice [2]; mouse, in vivo) was “not affected” and the “Plasma level of total IgG2a” value (BALB/c mice [2]; mouse, in vivo) was “not affected”.
